Source: ChEMBL document CHEMBL1201862, “PubChem BioAssay data set” (2004)
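Five concentrations, 48 hours, 96-well plates. The concentration for 50% growth inhibition is given as GI50.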 Activity calls are given as the source filed them. Cut-off read from the data, not from the text of the source: active = GI50 up to about 1.1 µM and inactive = higher. Where a SMILES comes first, the peptide text is derived from it. The star is where a group is joined. ONb = O=[N+]([O-])c1ccc(CO*)cc1; Boc = CC(C)(C)OC(=O)*

What was measured:
Test in all cases: NCI anticancer screen, dose series, 48 h
HT-29 = test system: HT-29
A498 = test system: A498
RPMI-8226 = test system: RPMI-8226
SK-MEL-5 = test system: SK-MEL-5
RXF 393 = test system: RXF 393
K562 = test system: K562
A549 = test system: A549
HCT-116 = test system: HCT-116
SF-268 = test system: SF-268
SF-295 = test system: SF-295
SNB-19 = test system: SNB-19
EKVX = test system: EKVX
HOP-92 = test system: HOP-92
NCI/ADR-RES = test system: NCI/ADR-RES
SR = test system: SR
SK-MEL-2 = test system: SK-MEL-2
COLO 205 = test system: COLO 205
SW-620 = test system: SW-620
T47D = test system: T47D
OVCAR-3 = test system: OVCAR-3

Structure (SMILES)	GI50 (HT-29)	GI50 (A498)	GI50 (RPMI-8226)	GI50 (SK-MEL-5)	GI50 (RXF 393)	GI50 (K562)	GI50 (A549)	GI50 (HCT-116)	GI50 (SF-268)	GI50 (SF-295)	GI50 (SNB-19)	GI50 (EKVX)	GI50 (HOP-92)	GI50 (NCI/ADR-RES)	GI50 (SR)	GI50 (SK-MEL-2)	GI50 (COLO 205)	GI50 (SW-620)	GI50 (T47D)	GI50 (OVCAR-3)
O=[N+]([O-])c1ccc2nc(Nc3ccccc3)c(Nc3ccccc3)nc2c1	0.463 µM (active)	0.929 µM (active)	2.61 µM (inactive)	1.49 µM (inactive)	2.57 µM (inactive)	2.04 µM (inactive)	0.349 µM (active)	0.555 µM (active)	1.62 µM (inactive)	1.14 µM (inactive)	1.15 µM (inactive)	1.82 µM (inactive)	1.63 µM (inactive)	1.46 µM (inactive)	0.489 µM (active)	2.15 µM (inactive)	1.62 µM (inactive)	1.56 µM (inactive)	2.63 µM (inactive)	
CC(C)CC(NC(=O)OC(C)(C)C)C(=O)NC(CCC(=O)OCc1ccc([N+](=O)[O-])cc1)C(=O)OCc1ccc([N+](=O)[O-])cc1 (stereo not drawn) (Boc-Leu-Glu(ONb)-ONb; configuration not given here)	21.2 µM (inactive)	40.2 µM (inactive)	22.4 µM (inactive)			9.44 µM (inactive)		37.5 µM (inactive)	18.4 µM (inactive)	43.4 µM (inactive)	> 100 µM (inactive)	49.2 µM (inactive)	56.4 µM (inactive)	> 100 µM (inactive)	13.8 µM (inactive)	22.1 µM (inactive)	17.4 µM (inactive)	50.9 µM (inactive)	92.3 µM (inactive)	26.6 µM (inactive)
O=c1cc(N2CCOCC2)oc2c(-c3ccccc3)cccc12 [LY-294002]	6.25 µM (inactive)	2.48 µM (inactive)	2.96 µM (inactive)		2.77 µM (inactive)	14.2 µM (inactive)	4.79 µM (inactive)	12.6 µM (inactive)	2.28 µM (inactive)	6.53 µM (inactive)	14.6 µM (inactive)	3.49 µM (inactive)	9.04 µM (inactive)	4.76 µM (inactive)	3.36 µM (inactive)	9.93 µM (inactive)	13.5 µM (inactive)	21.7 µM (inactive)	2.49 µM (inactive)	7.16 µM (inactive)
CC(C)CCC(=O)c1ccoc1 [PERILLAKETONE]	> 100 µM (inactive)		> 100 µM (inactive)	> 100 µM (inactive)	> 100 µM (inactive)	> 100 µM (inactive)	> 100 µM (inactive)	> 100 µM (inactive)	> 100 µM (inactive)	> 100 µM (inactive)	> 100 µM (inactive)	> 100 µM (inactive)	> 100 µM (inactive)	> 100 µM (inactive)	> 100 µM (inactive)	> 100 µM (inactive)	> 100 µM (inactive)	> 100 µM (inactive)	> 100 µM (inactive)	> 100 µM (inactive)
